≈ marks a conversion by molar mass, not a printed value. Calls of active or inactive are those of the source. The calls are words filed in the database; no cut-off is given here.
Assays:
Candida albicans [1] = test: Antifungal activity against Candida albicans 90028 assessed as fungal growth inhibition at 16 ug/ml measured after 18 hrs by microdilution method relative to control; format: functional; details: read-out: GI
Candida albicans [2] = test: Antifungal activity against Candida albicans 90028 assessed as fungal growth inhibition at 8 ug/ml measured after 18 hrs by microdilution method relative to control; format: functional; details: read-out: GI
Candida albicans [3] = test: Antifungal activity against Candida albicans 90028 assessed as fungal growth inhibition at 4 ug/ml measured after 18 hrs by microdilution method relative to control; format: functional; details: read-out: GI
Candida albicans [4] = test: Antifungal activity against Candida albicans 90028 assessed as fungal growth inhibition at 2 ug/ml measured after 18 hrs by microdilution method relative to control; format: functional; details: read-out: GI
Candida albicans [5] = test: Antifungal activity against Candida albicans 90028 assessed as fungal growth inhibition at 1 ug/ml measured after 18 hrs by microdilution method relative to control; format: functional; details: read-out: GI
Candida albicans [6] = test: Antifungal activity against Candida albicans 90028 assessed as fungal growth inhibition at 0.5 ug/ml measured after 18 hrs by microdilution method relative to control; format: functional; details: read-out: GI
Candida albicans [7] = test: Antifungal activity against Candida albicans 90028 assessed as fungal growth inhibition at 0.25 ug/ml measured after 18 hrs by microdilution method relative to control; format: functional; details: read-out: GI
Candida albicans [8] = test: Antifungal activity against Candida albicans 90028 assessed as fungal growth inhibition at 0.125 ug/ml measured after 18 hrs by microdilution method relative to control; format: functional; details: read-out: GI
Candida albicans [9] = test: Antifungal activity against Candida albicans 90028 assessed as fungal growth inhibition at 0.0625 ug/ml measured after 18 hrs by microdilution method relative to control; format: functional; details: read-out: GI
Candida albicans [10] = test: Antifungal activity against Candida albicans 90028 assessed as fungal growth inhibition at 0.0313 ug/ml measured after 18 hrs by microdilution method relative to control; format: functional; details: read-out: GI
Candida albicans [11] = test: Antifungal activity against Candida albicans 90028 assessed as fungal growth inhibition at 16 ug/ml measured after 48 hrs by microdilution method relative to control; format: functional; details: read-out: GI
Candida albicans [12] = test: Antifungal activity against Candida albicans 90028 assessed as fungal growth inhibition at 8 ug/ml measured after 48 hrs by microdilution method relative to control; format: functional; details: read-out: GI
Candida albicans [13] = test: Antifungal activity against Candida albicans 90028 assessed as fungal growth inhibition at 4 ug/ml measured after 48 hrs by microdilution method relative to control; format: functional; details: read-out: GI
Candida albicans [14] = test: Antifungal activity against Candida albicans 90028 assessed as fungal growth inhibition at 2 ug/ml measured after 48 hrs by microdilution method relative to control; format: functional; details: read-out: GI
Candida albicans [15] = test: Antifungal activity against Candida albicans 90028 assessed as fungal growth inhibition at 1 ug/ml measured after 48 hrs by microdilution method relative to control; format: functional; details: read-out: GI
Candida albicans [16] = test: Antifungal activity against Candida albicans 90028 assessed as fungal growth inhibition at 0.5 ug/ml measured after 48 hrs by microdilution method relative to control; format: functional; details: read-out: GI
Candida albicans [17] = test: Antifungal activity against Candida albicans 90028 assessed as fungal growth inhibition at 0.25 ug/ml measured after 48 hrs by microdilution method relative to control; format: functional; details: read-out: GI
Candida albicans [18] = test: Antifungal activity against Candida albicans 90028 assessed as fungal growth inhibition at 0.125 ug/ml measured after 48 hrs by microdilution method relative to control; format: functional; details: read-out: GI
Candida albicans [19] = test: Antifungal activity against Candida albicans 90028 assessed as fungal growth inhibition at 0.0625 ug/ml measured after 48 hrs by microdilution method relative to control; format: functional; details: read-out: GI
Candida albicans [20] = test: Antifungal activity against Candida albicans 90028 assessed as fungal growth inhibition at 0.0313 ug/ml measured after 48 hrs by microdilution method relative to control; format: functional; details: read-out: GI
Candida albicans [21] = test: Antifungal activity against Candida albicans 90028 assessed as fungal growth inhibition measured after 48 hrs by microdilution method; format: functional
Candida albicans [22] = test: Fungicidal activity against Candida albicans 90028 preincubated for 48 hrs followed by plating on SD agar and measured after 48 hrs; format: functional; details: time 96 hrs
Vero [23] = test: Cytotoxicity against African green monkey Vero cells at 0.25 to 512 ug/ml by XTT assay relative to control; format: cell-based; details: chlorocebus sabaeus, at 0.25 to 512 µg/mL, dose 0.25-512 µg/ml
[24] = Cytotoxicity against human MRC5 cells by CellTiter 96 Aqueous One Solution Reagent based assay; format: cell-based
[25] = Toxicity in Galleria mellonella larvae assessed as survival at 16 ug/ml relative to control; details: at 16 µg/mL
[26] = Drug uptake in Galleria mellonella larvae assessed as increase in fluorescence in longitudinal larva slides measured after 2 hrs by fluorescence assay; format: ADME, tissue-based
[27] = Drug uptake in Galleria mellonella larvae assessed as increase in fluorescence near the proventriculus measured after 2 hrs by fluorescence assay; format: ADME
Candida albicans [28] = test: Antifungal activity against Candida albicans 90028 infected in Galleria mellonella larvae at 16 ug/ml by H and E staining based histological analysis; format: functional, organism-based; details: dose 16.0 µg/ml
Candida albicans [29] = test: Induction of plasma membrane permeabilization in Candida albicans infected in human MRC5 cells at 16 ug/ml measured after 18 hrs by propidium iodide staining based confocal laser scanning microscopy; format: functional, organism-based; details: dose 16.0 µg/ml
Candida albicans [30] = test: Induction of plasma membrane permeabilization in Candida albicans infected in human TR146 cells at 16 ug/ml measured after 18 hrs by propidium iodide staining based confocal laser scanning microscopy; format: functional, organism-based; details: dose 16.0 µg/ml
Candida albicans [31] = test: Induction of cell demise in Candida albicans infected in human TR146 cells at 16 ug/ml measured after 18 hrs by AO/propidium iodide staining based confocal laser scanning microscopy; format: functional, organism-based; details: dose 16.0 µg/ml
Candida albicans [32] = test: Induction of cell demise in Candida albicans infected in human MRC5 cells at 16 ug/ml measured after 18 hrs by AO/propidium iodide staining based confocal laser scanning microscopy; format: functional, organism-based; details: dose 16.0 µg/ml
[33] = Drug uptake in Galleria mellonella larvae assessed as increase in fluorescence between cell wall and muscle layer measured after 2 hrs by fluorescence assay; format: ADME
Candida albicans [34] = test: Antibiofilm activity against Candida albicans 90028 assessed as increasing in cell killing by XTT assay; format: functional
Candida albicans [35] = test: Antifungal activity against Candida albicans 90028 infected in Galleria mellonella larvae assessed as increase in larvae survival at MFC measured 96 hrs post-infection relative to control; format: functional
[36] = Cytotoxicity against African green monkey Vero cells by XTT assay; format: cell-based; details: chlorocebus sabaeus
Vero [37] = test: Cytotoxicity against African green monkey Vero cells at 0.25 to 16 ug/ml by XTT assay relative to control; format: cell-based; details: chlorocebus sabaeus, at 0.25 to 16 µg/mL, dose 0.25-16 µg/ml
Candida albicans [38] = test: Induction of plasma membrane disruption in Candida albicans assessed as accidental type cell death at 8 ug/ml measured after 18 hrs by Annexin V-FITC/propidium iodide staining based flow cytometry (reference value: 1.74 +/- 1.37%); details: dose 8.0 µg/ml
Candida albicans [39] = test: Anti-adhesive activity against Candida albicans assessed as reduction in […] adhesion to human TR146 cells at 8 ug/ml incubated for 2 hrs prior to cell infection and measured after 2 hrs by colony counting method relative to control; format: functional; design: scale not given: the % may be the effect or the level left; details: dose 8 µg/ml; time 4 hrs
[40] = Induction of adhesive activity against Candida albicans assessed as increase in […] adhesion to human TR146 cells at 4 ug/ml incubated for 2 hrs prior to cell infection and measured after 2 hrs by colony counting method relative to control; format: cell-based; details: tr146, 4 h, dose 4 µg/ml
Candida albicans [41] = test: Antibiofilm activity against Candida albicans 90028 assessed as cell killing at 256 ug/ml by XTT assay relative to control; format: functional; details: dose 256 µg/ml

SMILES | inhibition of growth at 16 µg/mL (Candida albicans [1]) [%] | inhibition of growth at 8 µg/mL (Candida albicans [2]) [%] | inhibition of growth at 4 µg/mL (Candida albicans [3]) [%] | inhibition of growth at 2 µg/mL (Candida albicans [4]) [%] | inhibition of growth at 1 µg/mL (Candida albicans [5]) [%] | inhibition of growth at 0.5 µg/mL (Candida albicans [6]) [%] | inhibition of growth at 0.25 µg/mL (Candida albicans [7]) [%] | inhibition of growth at 0.125 µg/mL (Candida albicans [8]) [%] | inhibition of growth at 0.0625 µg/mL (Candida albicans [9]) [%] | inhibition of growth at 0.0313 µg/mL (Candida albicans [10]) [%] | inhibition of growth at 16 µg/mL (Candida albicans [11]) [%] | inhibition of growth at 8 µg/mL (Candida albicans [12]) [%] | inhibition of growth at 4 µg/mL (Candida albicans [13]) [%] | inhibition of growth at 2 µg/mL (Candida albicans [14]) [%] | inhibition of growth at 1 µg/mL (Candida albicans [15]) [%] | inhibition of growth at 0.5 µg/mL (Candida albicans [16]) [%] | inhibition of growth at 0.25 µg/mL (Candida albicans [17]) [%] | inhibition of growth at 0.125 µg/mL (Candida albicans [18]) [%] | inhibition of growth at 0.0625 µg/mL (Candida albicans [19]) [%] | inhibition of growth at 0.0313 µg/mL (Candida albicans [20]) [%] | other results
O=[N+]([O-])c1cc(S(=O)(=O)C(F)(F)Cl)ccc1N/N=C\c1ccc(C2=C3C=CC=[N+]3[B-](F)(F)n3cccc32)cc1 | 100 | 100 | 100 | 99.9 | 100 | 99.8 | 100 | 99.8 | 100 | 100 | 100 | 100 | 100 | 100 | 100 | 100 | 99.9 | 100 | 99.8 | 99.8 | MIC (Candida albicans [21]): inactive; MFC (Candida albicans [22]): ≥ 16 µg/mL; Activity (Vero [23]): 100%; CC50 [24]: ≥ 16 µg/mL; survival [25]: 93%; Drug uptake [26]: Not Active; Drug uptake [27]: Active; Activity (Candida albicans [28]): inactive; Activity (Candida albicans [29]): Active; Activity (Candida albicans [30]): Active; Activity (Candida albicans [31]): Active; Activity (Candida albicans [32]): Active
O=Cc1ccc(C2=C3C=CC=[N+]3[B-](F)(F)n3cccc32)cc1 | – | – | – | – | – | – | – | – | – | – | – | – | – | – | – | – | – | – | – | – | Drug uptake [33]: Active
C[C@@H]1[C@H](O)[C@@H](C)/C=C/C=C/C=C/C=C/C=C/C=C/C=C/[C@H](O[C@@H]2O[C@H](C)[C@@H](O)[C@H](N)[C@@H]2O)C[C@@H]2O[C@](O)(C[C@@H](O)C[C@@H](O)[C@H](O)CC[C@@H](O)C[C@@H](O)CC(=O)O[C@H]1C)C[C@H](O)[C@H]2C(=O)O | – | – | – | – | – | – | – | – | – | – | – | – | – | – | – | – | – | – | – | – | Activity (Candida albicans [34]): Active
O=[N+]([O-])c1cc(S(=O)(=O)C(Cl)(Cl)Br)ccc1N/N=C\c1ccc(C2=C3C=CC=[N+]3[B-](F)(F)n3cccc32)cc1 | 100 | 100 | 100 | 100 | 100 | 100 | 100 | 99.7 | 99.8 | 99.7 | 100 | 100 | 100 | 100 | 100 | 100 | 100 | 99.7 | 99.8 | 99.7 | MFC (Candida albicans [22]): ≥ 16 µg/mL; Activity (Candida albicans [35]): 61.47%; CC50 [36]: ≥ 8 µg/mL; CC50 [24]: ≥ 256 µg/mL; survival [25]: 93%; Drug uptake [33]: Active; Drug uptake [27]: Active; Activity (Candida albicans [28]): Active; Activity (Candida albicans [29]): Active; Activity (Candida albicans [30]): Active; Activity (Candida albicans [31]): Active; Activity (Candida albicans [32]): Active
NNc1ccc(S(=O)(=O)C(F)(F)I)cc1[N+](=O)[O-] | 100 | 100 | 100 | 100 | 100 | 99.7 | 100 | 73.7 | 100 | 88.2 | 100 | 100 | 74.9 | 72.8 | 72.9 | 70.1 | 69.5 | 22.9 | 15.5 | 22 | MIC90 (Candida albicans [21]): 8 µg/mL (≈ 20.4 µM); MFC (Candida albicans [22]): 8 µg/mL (≈ 20.4 µM); Activity (Vero [37]): 12.54%; CC50 [36]: ≥ 32 µg/mL; CC50 [24]: ≥ 16 µg/mL; survival [25]: 100%; Activity (Candida albicans [28]): inactive; Activity (Candida albicans [38]): 74.8%; Activity (Candida albicans [39]): 100%; fold change (FC) [40]: 13.78; Activity (Candida albicans [41]): 40%; CC50 (Candida albicans [34]): ≤ 64 µg/mL
O=[N+]([O-])c1cc(S(=O)(=O)C(F)(F)I)ccc1N/N=C\c1ccc(C2=C3C=CC=[N+]3[B-](F)(F)n3cccc32)cc1 | 100 | 100 | 100 | 100 | 100 | 100 | 100 | 100 | 100 | 100 | 100 | 100 | 100 | 100 | 100 | 100 | 97 | 95.5 | 94.3 | 75.8 | MIC (Candida albicans [21]): inactive; MFC (Candida albicans [22]): ≥ 16 µg/mL; CC50 [36]: ≥ 8 µg/mL; CC50 [24]: ≥ 16 µg/mL; survival [25]: 100%; Drug uptake [26]: Not Active; Activity (Candida albicans [28]): inactive; Activity (Candida albicans [29]): Active; Activity (Candida albicans [30]): Active; Activity (Candida albicans [31]): Active; Activity (Candida albicans [32]): Active
